{
  "source": "patent US5759789A",
  "about": "“Prostaglandin receptor EP2” (Merck Frosst Canada, Inc., priority 1996, dated 1998)",
  "key": {"EP2 receptor [1]": {"target": "T1, EP2 receptor (Homo sapiens, UniProt P35408)", "T1 sequence (P35408 whole entry)": "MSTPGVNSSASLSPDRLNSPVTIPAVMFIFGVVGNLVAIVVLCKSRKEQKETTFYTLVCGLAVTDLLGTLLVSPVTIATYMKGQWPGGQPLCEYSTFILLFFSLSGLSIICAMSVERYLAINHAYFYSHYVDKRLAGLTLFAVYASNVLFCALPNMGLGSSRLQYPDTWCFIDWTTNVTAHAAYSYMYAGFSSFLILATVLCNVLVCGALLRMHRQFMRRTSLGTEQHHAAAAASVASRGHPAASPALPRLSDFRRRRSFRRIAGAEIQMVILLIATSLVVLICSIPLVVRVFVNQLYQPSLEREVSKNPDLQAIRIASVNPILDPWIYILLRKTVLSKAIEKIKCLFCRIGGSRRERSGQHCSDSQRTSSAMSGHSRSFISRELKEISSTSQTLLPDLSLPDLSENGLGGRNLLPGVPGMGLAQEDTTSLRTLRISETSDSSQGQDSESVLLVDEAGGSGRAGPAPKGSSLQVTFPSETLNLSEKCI", "experiment": "[3H]PGE2 binding (competition) assay, membranes of COS-M6 cells transfected with EP2", "parameters": "full-length human EP2 cDNA was isolated; This 1.958 kb cDNA clone encodes a 488-amino acid protein; expressed in transfected cells; host or cells: COS-M6 cells (pcDNAIamp plasmid, DEAE-dextran), 100,000 x g membrane fraction", "details": "for rank order of potency for prostaglandins and related analogs / activity at EP2 in words: competition with [3H]PGE2", "experimental": "The cells were maintained in culture for 72 h, then harvested and membranes prepared by differential centrifugation (1000×g for 10 min, then 100,000×g for 30 min) following lysis of the cells by nitrogen cavitation. […] Incubations were conducted for 45 min at 30° C. prior to separation of the bound and free radioligand by rapid filtration through Whatman GF/B filters presoaked at 4° C. in washing buffer ([…] MES/KOH (pH 6.0) containing 0.01% bovine serum albumin)."}, "IP receptor": {"test_system": "IP receptor", "details": "cited from earlier work"}, "[2]": {"test_system": "control oocytes (CFTR alone or CFTR plus antisense EP2 cDNA injected)", "experiment": "CFTR-mediated Cl- current in control oocytes (CFTR alone or CFTR plus antisense EP2 cDNA injected)", "assay_type": "cell-based, Xenopus laevis"}, "TP receptor": {"test_system": "TP receptor", "details": "cited from earlier work"}, "EP2 receptor [3]": {"test_system": "EP2 receptor", "details": "cited from earlier work"}, "EP2 receptor [4]": {"test_system": "EP2 receptor", "details": "cited from earlier work", "remark": "listed apart in the source"}, "EP1 receptor": {"test_system": "EP1 receptor", "details": "cited from earlier work"}, "EP2 receptor [5]": {"target": "T1, EP2 receptor", "experiment": "PGE2-induced CFTR-mediated Cl- current in Xenopus oocytes injected with EP2 plus CFTR cDNA", "assay_type": "cell-based", "experimental": "Oocytes were taken from adult females of Xenopus laevis using standard surgical procedure (Colman, A., 1984 In: Transcription and Translation--A Practical Approach, IRL Press). To remove follicle cells, oocytes were treated for 2-3 h with freshly made collagenase (2 mg/ml, type 2, Worthington Biochemical Corp., Freehold, N.J.) in Ca^2+ -free ND96 solution (ND96 in mM: NaCl 96, KCl 2, MgCl2 1, HEPES 5, Na-pyruvate 2.5, theophylline 0.5 gentamicin […], +1.8 CaCl2, pH 7.6). Defolliculated stage 5-6 oocytes were selected and maintained in ND96 solution. Oocyte nuclei were injected with 1.6 ng of pcDNAIamp-EP2 plus 2.5 ng of pcDNAIamp-CFTR and then incubated at 18° C. for 48 h before challenge with agonist. CFTR (cystic fibrosis transmembrane regulator, a cAMP dependent Cl^- channel) was co-expressed with EP2 receptor in these oocytes and served as a reporter of changes in intracellular cAMP levels. Functional activity was determined by measurement of PGE2-induced CFTR-mediated Cl^- current. An oocyte was placed in a 0.5 ml perfusion chamber and voltage clamped at -60 mV (with microelectrodes of 0.5-2.0 MW resistance filled with 3M KCl) using a Turbo TEC01C amplifier (NP1 Instruments, Germany). Ligand-containing solution was perfused and the current response was recorded."}, "EP3 receptor": {"test_system": "EP3 receptor", "details": "cited from earlier work"}, "[6]": {"details": "CFTR alone or CFTR plus antisense EP2 cDNA injected"}},
  "note": "“Also recorded” adds a separate entry of the source. Like-named read-outs stand apart in the source and are kept apart here.",
  "data": [
    {"smiles": "O=C(O)CCCCCC[C@H]1C(=O)CC[C@@H]1/C=C/[C@@H](O)COc1ccccc1", "note": "[MB28767]", "values": [
      {"measurement": "potency at EP2 relative to EP3 (fold less potent at EP2 than EP3)", "setting": "EP2 receptor [1]; EP2 versus EP3", "result": "approximately 30 fold"}
    ]},
    {"smiles": "CCCCC(C)(O)C/C=C/[C@H]1[C@H](O)CC(=O)[C@@H]1CCCCCCC(=O)OC", "note": "(mixture of isomers) [Misoprostol]", "values": [
      {"measurement": "IC50", "setting": "EP2 receptor [1]; read-out: IC50", "result": 6.03, "unit": "µM"}
    ]},
    {"smiles": "O=C(O)CCCC=CCC1C(=O)CC(O)C1C=CC(O)CCc1ccccc1", "note": "(stereo not drawn) [phenyl-trinor PGE2, 17-pheyyl-trinor PGE2]", "values": [
      {"measurement": "rank order of potency for prostaglandins and related analogs", "setting": "EP2 receptor [1]", "result": "PGE2=PGE1>>phenyl-trinor PGE2>iloprost>PGF2α >PGD2≈U46619"}
    ]},
    {"smiles": "CCCC1([C@H](O)C/C=C/[C@H]2[C@H](O)CC(=O)[C@@H]2CCCCCCC(=O)OC)CCC1", "note": "[butaprost]", "values": [
      {"measurement": "activity at EP2 in words", "setting": "EP2 receptor [1]", "result": "relatively inactive"},
      {"measurement": "IC50", "setting": "EP2 receptor [1]; read-out: IC50", "result": 30, "unit": "µM"}
    ]},
    {"smiles": "CC(=O)NNC(=O)N1Cc2ccccc2Oc2ccc(Cl)cc21", "note": "[SC19220]", "values": [
      {"measurement": "activity at EP2 in words", "setting": "EP2 receptor [1]", "result": "essentially inactive"}
    ]},
    {"smiles": "CCCCC[C@H](O)/C=C/[C@H]1[C@H](O)CC(=O)[C@@H]1CCCCCCC(=O)O", "note": "[PGE1]", "values": [
      {"measurement": "rank order of potency for prostaglandins and related analogs", "setting": "EP2 receptor [1]", "result": "PGE2=PGE1>>phenyl-trinor PGE2>iloprost>PGF2α >PGD2≈U46619"},
      {"measurement": "IC50", "setting": "EP2 receptor [1]; read-out: IC50 values in competition assays", "result": 0.001, "unit": "µM"}
    ]},
    {"smiles": "CC#CCC(C)[C@H](O)/C=C/[C@@H]1[C@H]2C/C(=C/CCCC(=O)O)C[C@H]2C[C@H]1O", "note": "(stereo partly drawn) [iloprost]", "values": [
      {"measurement": "potency at the IP receptor, stable prostacyclin analog", "setting": "IP receptor", "result": "comparable potency"},
      {"measurement": "rank order of potency for prostaglandins and related analogs", "setting": "EP2 receptor [1]", "result": "PGE2=PGE1>>phenyl-trinor PGE2>iloprost>PGF2α >PGD2≈U46619"}
    ]},
    {"smiles": "CC(C)Cn1c(=O)n(C)c(=O)c2[nH]cnc21", "note": "[IBMX]", "values": [
      {"measurement": "CFTR-mediated Cl- current", "setting": "[2]; CFTR + anti-sense hEP2 cDNA injected oocytes", "result": "IBMX-induced, CFTR-mediated Cl^- current"}
    ]},
    {"smiles": "CCCCC[C@H](O)/C=C/[C@H]1C(=O)C[C@H](O)[C@@H]1C/C=C\\CCCC(=O)O", "note": "[PGD2]", "values": [
      {"measurement": "rank order of potency for prostaglandins and related analogs", "setting": "EP2 receptor [1]", "result": "PGE2=PGE1>>phenyl-trinor PGE2>iloprost>PGF2α >PGD2≈U46619"}
    ]},
    {"smiles": "CCCCC[C@H](O)/C=C/[C@@H]1[C@@H](C/C=C\\CCCC(=O)O)[C@H]2CO[C@@H]1C2", "note": "[U46619]", "values": [
      {"measurement": "potency at the TP receptor, stable thromboxane analog", "setting": "TP receptor", "result": "comparable potency"},
      {"measurement": "rank order of potency for prostaglandins and related analogs", "setting": "EP2 receptor [1]", "result": "PGE2=PGE1>>phenyl-trinor PGE2>iloprost>PGF2α >PGD2≈U46619"}
    ]},
    {"smiles": "CCCCC[C@H](O)/C=C/[C@H]1[C@H](O)CC(=O)[C@@H]1C/C=C\\CCCC(=O)O", "note": "[PGE2, prostaglandin E2]", "values": [
      {"measurement": "intracellular cAMP levels", "setting": "EP2 receptor [3]", "result": "increase in intracellular cAMP levels"},
      {"measurement": "affinity", "setting": "EP2 receptor [4]", "result": "high affinity"},
      {"measurement": "affinity", "setting": "EP1 receptor", "result": "high affinity"},
      {"measurement": "current response", "setting": "EP2 receptor [5]; perfusion of 1 nM, voltage clamp -60 mV, 1.6 ng EP2 plus 2.5 ng CFTR cDNA", "result": "inward cAMP-dependent Cl^- current; also recorded: prominent current responses"},
      {"measurement": "affinity", "setting": "EP3 receptor", "result": "high affinity"},
      {"measurement": "rank order of potency for prostaglandins and related analogs", "setting": "EP2 receptor [1]", "result": "PGE2=PGE1>>phenyl-trinor PGE2>iloprost>PGF2α >PGD2≈U46619"},
      {"measurement": "response of control oocytes", "setting": "[2]; 1 μM, CFTR + anti-sense hEP2 cDNA", "result": "lack of response"},
      {"measurement": "response of control oocytes", "setting": "[2]; 3 μM, CFTR + anti-sense hEP2 cDNA", "result": "lack of response"},
      {"measurement": "response of control oocytes", "setting": "[2]; [6]", "result": "absent"}
    ]},
    {"smiles": "CC(C)Oc1ccc2c(=O)c3cc(C(=O)O)ccc3oc2c1", "note": "[AH6809]", "values": [
      {"measurement": "activity at EP2 in words", "setting": "EP2 receptor [1]", "result": "essentially inactive"}
    ]},
    {"smiles": "CCCCC[C@H](O)/C=C/[C@@H]1[C@@H](C/C=C\\CCCC(=O)O)[C@@H](O)C[C@H]1O", "note": "[PGF2α]", "values": [
      {"measurement": "current response compared with PGE2", "setting": "EP2 receptor [5]; 1 μM PGF2α", "result": "much smaller"},
      {"measurement": "rank order of potency for prostaglandins and related analogs", "setting": "EP2 receptor [1]", "result": "PGE2=PGE1>>phenyl-trinor PGE2>iloprost>PGF2α >PGD2≈U46619"},
      {"measurement": "response of control oocytes", "setting": "[2]; [6]", "result": "absent"}
    ]}
  ]
}
